A melting point compilation (Tetko et al.; mined from patent text by program, amines drawn as free bases though some values may be those of a salt)

Row | melting point [°C] | Structure (SMILES)
1 | 61 to 64 | O=C(O)[C@@H]1CC[C@H](c2ccccc2)N1C(=O)CCS
2 | 58 to 60 | CCCCCCOc1c(CBr)ccc2c(OCCCCCC)c(CBr)ccc12
3 | 105 to 106 | CN(C)C(=O)c1c(-c2ccccc2F)ccc2ccccc12
4 | 154 to 156 | N#CC1(NC(=O)c2ccccc2C(=O)O)CCCCC1
5 | 167 to 180 | COc1cc(C2Oc3cc(C4Oc5cc(O)cc(O)c5C(=O)C4O)ccc3OC2CO)ccc1O (centres undefined)
6 | 189 to 191 | c1ccc2c(c1)c(N1CCOCC1)nc1c(-c3nc(C4CC4)no3)ncn12
7 | 50 to 53 | CCCCCCCCCCCCN(c1nc(Cl)nc(Cl)n1)c1nc(Cl)nc(Cl)n1
8 | 180 to 182 | OCC1OC(n2c(I)nc3cc(Cl)c(Cl)cc32)C(O)C1O (centres undefined)
9 | 135 to 136 | O=c1[nH][nH]c(C(F)(F)F)c1Cc1ccc(Br)cc1
10 | 88 to 90 | CC1c2cccc3c2N(CC3)c2ccccc2N1C(=O)CCCCl (centres undefined)
11 | 223 to 228 | O=C1C(=O)c2ccc(-c3ccncc3)cc2C2=C1SCC1(CCNCC1)O2
12 | 53 to 55 | CCCCCCCCCCCCOc1c(OC)cc(N)c2nccc(C)c12
13 | 214 to 217 | CCOC(=O)c1ncc2[nH]c3ccc(-n4cccc4)cc3c2c1C
14 | 81 to 85 | COc1ccc(OC2COc3ccc(OC(C)c4ccc5ccccc5n4)cc3C2O)cc1 (centres undefined)
15 | 125 to 129 | COc1cc(F)ccc1-c1ccnc(NC(=O)[C@H]2CC[C@@H](NC(C)=O)C2)c1
16 | 123 to 125 | O=C(NCCCc1ccncc1)N(CCC12CC3CC(CC(C3)C1)C2)CC1CC1
17 | 258 to 262 | COc1cc2c(cc1Cl)CC(=O)NN=C2c1ccc([N+](=O)[O-])cc1
18 | 105 to 107 | CCOC(=O)Oc1ccc(S(=O)(=O)N2c3cc(F)c(F)cc3-n3cccc3C2CC)cc1 (centres undefined)
19 | 52 to 53 | CCCOc1cc([N+](=O)[O-])ccc1Cl

Row | melting point [°C] | Structure (SMILES)
20 | 212 to 213 | CC(=O)N(NC(=O)c1ccccc1)[C@@H]1c2cc(C#N)ccc2OC(C)(C)[C@H]1O (relative stereo)
21 | 69 to 71 | O=C(c1ccc(Cl)cc1)C1(Oc2ccc(Cl)cc2)CC1
22 | 149 to 150 | O=C(C=C1CCCN1)c1cccs1
23 | 286 to 289 | CCOC(=O)c1cnc2cc(-c3ccccc3)sc2c1O
24 | 29 to 30.5 | CCCCOCCCCCCCCCCC(=O)O
25 | 26 to 27 | CCCCCCCCCCCCSCCCc1cc(C(C)(C)C)c(O)c(C(C)(C)C)c1
26 | 128 to 130 | CCOC(=O)c1sc2ccc(O)c(C=O)c2c1Cl
27 | 117 to 119 | COc1ccc(NCC(=O)N2CCC(Cc3ccccc3)CC2)cc1
28 | 77 to 79 | COc1ccc(COCc2cccc(C(=O)O)c2)cc1OC1CC2CCC1C2 (centres undefined)
29 | 117 to 120 | Cc1nc(N2CCN(c3ccc(F)cc3)CC2)c(C#N)nc1-c1ccccc1
30 | 144 to 150 | COc1cc(Nc2nccc(Nc3ccc(CC(=O)O)cc3)n2)cc(OC)c1OC
31 | 116 to 120 | CCC(CC)C(NS(=O)(=O)c1cc(Cl)c(Cl)s1)c1ccnn1-c1ccccc1 (centres undefined)
32 | 111 to 112 | CS(=O)(=O)c1ccc(-c2ccc(C(F)F)n2-c2ccc(F)cc2)cc1
33 | 246 to 249 | O=C(O)CN(CC(=O)O)c1nc(N(CC(=O)O)CC(=O)O)nc(N(CC(=O)O)CC(=O)O)n1
34 | 104 | O=C(O)CCCCCOc1cc(-c2ccccc2)cc(-c2ccccc2)c1
35 | 128 to 129 | O=C(C=Cc1cncc(F)c1)NCCCCN1CCN(C(c2ccccc2)c2ccccc2)CC1
36 | 241 to 242 | Cc1ccc(NS(=O)(=O)c2cccs2)c2[nH]c(C(=O)NCCSC(c3ccccc3)(c3ccccc3)c3ccccc3)cc12
37 | 158 to 160 | O=C1C=c2cc3c(cc2CC1=O)=CCO3
38 | 321 to 323 | CS(=O)c1ccccc1-c1cc2[nH]c3ccc(O)cc3c2c2c1C(=O)NC2=O (centres undefined)

Row | Structure (SMILES) | melting point [°C]
39 | COc1cc2c(cc1OC)N(C)C(=O)CN=C2c1ccc(Cl)c(Cl)c1 | 174 to 177
